The source of these data is EP0261503B1, “Heterocyclic amido derivatives of substituted benzoic acids and therapeutic compositions which contain them as active principle” (VALEAS S.p.A. INDUSTRIA CHIMICA E FARMACEUTICA, priority 1986, dated 1988).

Experiment [1] deals with passive cutaneous anaphylaxis. Briefly: passive cutaneous anaphylaxis test (PCA) in the rat, intraperitoneal administration. To be noted: ip, PCA test on the rat, 15 minutes before antigen challenge, versus control group. Type of experiment: in vivo. As for the experimental part:
The products of general formula (I) listed in Table 1 were subjected to a first pharmacological screening to evaluate their activity after oral administration in the passive cutaneous anaphylaxis test (PCA) in the rat in accordance with Goose J. and Blair A.M.J.N. (Immunology, 16, 749-760, 1969). Serum, obtained from rats actively sensitized with ovalbumin and suitably diluted, was injected intradermally into the shave back of male Sprague Dawley rats, and after 24 hours these were treated intravenously with a solution of ovalbumin and Evans blue. Thirty minutes after the antigen challenge, the animals were sacrificed and the diameter and intensity of the blue halo which has formed in the intradermal injection site was measured. Some of the compounds according to the invention were subjected to a further passive cutaneous anaphylaxis test evaluation to determine their efficiency after intraperitoneal administration at a dose of 100 mg/kg, fifteen minutes before the challenge. […]

The subject of experiment [2] is passive cutaneous anaphylaxis. The experiment in a line: passive cutaneous anaphylaxis test (PCA) in the rat, oral administration. The format is in vivo. The conditions noted are these: PCA test on the rat, oral administration 30 minutes before antigen challenge; for Activity: relative to Tranilast = 1. As for the experimental part: The products of general formula (I) listed in Table 1 were subjected to a first pharmacological screening to evaluate their activity after oral administration in the passive cutaneous anaphylaxis test (PCA) in the rat in accordance with Goose J. and Blair A.M.J.N. (Immunology, 16, 749-760, 1969). Serum, obtained from rats actively sensitized with ovalbumin and suitably diluted, was injected intradermally into the shave back of male Sprague Dawley rats, and after 24 hours these were treated intravenously with a solution of ovalbumin and Evans blue. Thirty minutes after the antigen challenge, the animals were sacrificed and the diameter and intensity of the blue halo which has formed in the intradermal injection site was measured. The compounds according to the invention, and also tranilast (N-3ʹ, 4ʹ-dimethoxycinnamoyl) anthranilic acid) used as reference standard, were dissolved-suspended in suitable solvents (carboxymethylcellulose, gum arabic, DMSO etc.) and administered orally thirty minutes before the antigen challenge. Table 2 lists the ED₅₀ values and the relative confidence limits at p = 0.05.

Take `CCOC(=O)c1cc(C)sc1NC(=O)c1cccc(OC)c1[N+](=O)[O-]` [Compound 1, 3-thiophene carboxylic acid-2-[(2-nitro-3-methoxybenzoyl)amino]-5-methyl ethyl ester]: the inhibition (commonly the share of the control response that was lost under treatment) at 100 mg/kg in experiment [1] came out at 59.4%. In experiment [2], this molecule showed an ED₅₀ of 0.21 mmoles/kg/os and an Activity of 1.5.
As for `CCOC(=O)c1cc(C)sc1NC(=O)c1cccc(OC)c1N` [Compound 7, 3-THIOPHENE CARBOXYLIC ACID, 2[(2-AMINO-3-METHOXY BENZOYL)AMINO]-5-METHYL-ETHYL ESTER], in experiment [1], at 100 mg/kg the inhibition was 31.9%. Moreover, in experiment [2], the Activity was determined as 450.7.
In experiment [2], `CCOC(=O)c1cc(C)sc1NC(=O)c1cccc(OC)c1NC(C)=O` [Compound 15, 3-THIOPHENE CARBOXYLIC ACID, 2-[(2-ACETYL AMINO-3-METHOXY BENZOYL)AMINO]-5-METHYL, ETHYL ESTER] gave an ED₅₀ of 0.013 mmoles/kg/os and an Activity of 24.6.
Turning to `COc1cccc(C(=O)Nc2sc(C)cc2C(=O)O)c1N` [Compound 16, 3-THIOPHENE CARBOXYLIC ACID, 2-[(2-AMINO-3-METHOXY BENZOYL)AMINO]-5-METHYL], the Activity in experiment [2] is 41.0.
The molecule `CCOC(=O)C(=O)Nc1c(OC)cccc1C(=O)Nc1sc(C)cc1C(=O)OCC` [Compound 18, 3-THIOPHENE CARBOXYLIC ACID, 2-[[2-AMINO(OXOACETIC ACID ETHYL ESTER)-3-METHOXY BENZOYL] AMINO]-5-METHYL, ETHYL ESTER] gave an Activity in experiment [2] of 114.3.
Consider `CCOC(=O)Cc1csc(NC(=O)c2cccc(OC)c2N)n1` [Compound 25, 4-THIAZOLE ACETIC ACID, 2-[(2-AMINO-3-METHOXY BENZOYL)AMINO], ETHYL ESTER], for which the inhibition at 100 mg/kg in experiment [1] was 43.1%. For the same molecule, in experiment [2], the Activity is 64.0.
`CCOC(=O)c1cc(C)sc1-n1c(=O)[nH]c2c(OC)cccc2c1=O` [Compound 32, 8-METHOXY-3-[(3-ETHOXY CARBONYL-5-METHYL)-THIENYL]-2,4 QUINAZOLONE]: the inhibition at 100 mg/kg in experiment [1] is 52.7%. In experiment [2], this molecule displayed an ED₅₀ of 0.08 mmoles/kg/os and an Activity of 4.0.
As for `CCOC(=O)C(O)c1csc(-n2c(=O)[nH]c3c(OC)cccc3c2=O)n1` (stereo not drawn) [Compound 36, 8-METHOXY-3-[[5-(α-HYDROXY ETHYL ACETATE)]-THIAZENYL]-2,4 QUINAZOLONE], testing at 100 mg/kg in experiment [1] gave an inhibition of 40.7%. In experiment [2], the ED₅₀ is on record as 0.054 mmoles/kg/os and the Activity was determined as 5.9.
Regarding `CCOC(=O)Cc1csc(NC(=O)c2cc(C)ccc2N)n1` [Compound 37], the inhibition at 100 mg/kg in experiment [1] was 88.4%. The molecule also returned an Activity in experiment [2] of 213.3.
With `COc1ccc(C=CC(=O)Nc2ccccc2C(=O)O)cc1OC` [Tranilast, N-(3ʹ,4ʹ-dimethoxycinnamoyl) anthranilic acid, reference compound], in experiment [2], the ED₅₀ was found to be 0.32 mmoles/kg/os and the Activity is 1.
